Laboratory results published in patent publication US20220370493A1, “METHODS AND COMPOSITIONS FOR GENERATING NITRIC OXIDE AND USES THEREOF” (THIRTY HOLDINGS LIMITED, priority 2019, published 2022).

How the values were obtained:
[1] = test system: SARS-CoV-2 clinical isolate; test: SARS-CoV-2 virus yield reduction assay in Vero E6 cells; type: cell-based
Protocol: SARS-CoV-2 clinical isolate.
At time 0 hr, Vero E6 cells were infected with virus in presence of the formulation or controls and incubated for 1 hour. After this incubation period the inoculum was removed and the cells were washed. Fresh formulation or controls were then added to the washed cells. At 24 hours post infection, Vero E6 cell supernatants were harvested and titrated, and the virus titration was incubated for 6 days prior to readout to determine any virus yield reduction. Separate tests were performed at four MOIs including 3.0 and 0.3, although only those two MOIs were titrated. The readout was by crystal violet (cell monolayer) staining, followed by CPE scoring.

[2] = test system: Vero E6 cells

CCN(CC)CCCC(C)Nc1ccnc2cc(Cl)ccc12 (stereo not shown) [chloroquine, Chloroquine phosphate] was tested, and the SARS-CoV-2 titre ([1]; FIG. 33, Run 1, MOI 3.0, 24 hours) was “limit of detection” and the SARS-CoV-2 titre ([1]; FIG. 34, Run 2, MOI 3.0 and MOI 0.3, 48 hours) was “limit of detection”.
With O=C(O)CC(O)(CC(=O)O)C(=O)O [citric acid pH 5.8, citric acid] the “cytotoxicity on the LDH assay” value [2] was “low cytotoxicity” and the “in vitro antiviral action against SARS-CoV-2” value ([1]; FIGS. 33 and 34, MOI 3.0 and 0.3) was “high in vitro antiviral action”.
